Where two headings read alike, the source gives them in different places.
What was measured:
VHL/EloB/EloC (VBC) = target: T1, VHL/EloB/EloC (VBC) (Homo sapiens, UniProt P40337); test: SPR binary binding of PROTAC to VBC-functionalized surface
T1 construct: VHL (54-213), ElonginB (17-112) ElonginC (1-104); made in house
Experimental: (§1) SPR experiments were performed on a Biacore 8 K or T200 instrument (Cytiva). […] The running buffer during immobilization was PBS with 0.005% P20. Either high-density (3000-4000 RU) or low-density (300-400 RU) VBC-functionalized surfaces were created, followed by equilibration in the running buffer for 3 h.
PROTACs (10 mM stocks in 100% DMSO) were diluted to 400 nM in a running buffer (20 mM Tris pH 7.5, 200 mM NaCl, 0.02% P20). This stock solution was then serially diluted in the running buffer containing final 2% DMSO. […] For SMARCA2 analysis, biotinylated proteins were introduced on a Series S streptavidin (SA) sensor chip at high-density (3000-4000 RU).
(§2) Raw sensorgrams were processed by performing double reference subtraction, solvent correction, and analysis was done using Biacore Insight Evaluation Software. Kinetic analysis was performed by fitting data to a 1:1 Langmuir interaction model and a steady-state affinity model was used to evaluate equilibrium binding affinity.

BRD4 [1] = target: T2, BRD4 (Homo sapiens, UniProt O60885); test: BRD4 degradation time course in A375 cells (MSD); assay type: cell-based; settings: single concentration at or near maximal activity
T2 construct: endogenous in cells; host or cells: A375
Text: To measure the rate of protein degradation, we treated A375 cells with a single concentration of each PROTAC and measured the decrease in target abundance over time as shown in Figs. 4b and5b.
(§3) MSD electrochemiluminescence signals were subtracted by the average background signal from wells with lysis buffer alone. Normalized MSD values (POC) for individual compound treated wells were acquired by dividing background-subtracted assay signal by signal from vehicle control wells (cells + 0.1% DMSO) and multiplying by 100. This POC data was graphed using a nonlinear regression curve fit xy analysis and a log(inhibitor) vs response —variable slope (four parameter) model for dose response curves (Graphpad Prism 9, San Diego, CA, USA). To calculate area under the curve, all points on the curve were connected and vertical lines were drawn from each point down to y = 0, generating a series of trapezoids. The area of each trapezoid was determined using the equation A = (1/2)(h)(b1 + b2), where h = 1 (distance between points), b1 = POC of the first point and b2 = POC of the second point. The sum of all trapezoids provides an approximate area under the curve (AUC). For half-life (t1/2) determination in time course studies, a one-phase decay model was used for curve fitting and the time at which the curve crossed 50 POC was determined through interpolation (Graphpad Prism 9, San Diego, CA, USA).

[2] = target: T3, VBC / BRD4^BD1 ternary complex (Homo sapiens, UniProt O60885+P40337); test: SPR ternary complex binding, VBC surface with preformed PROTAC/BRD4 BD1 complex; settings: for Kd: SPR, VHL, PROTAC, error SEM, N = 3, read-out: KLPT (ternary complex binding affinity)
T3 construct: VHL (54-213), ElonginB (17-112) ElonginC (1-104); BRD4 (44-168); His6 (N, cleaved yes); made in house
Experimental: as §1
(§4) PROTACs (10 mM in 100% DMSO) were initially prepared at 200 nM in a running buffer (20 mM Tris pH 8.0, 250 mM NaCl, 1 mM TCEP, 0.01% P20, 0.2 mg/ml BSA) with a concentration of 2% DMSO. This solution was mixed at 1:1 ratio with a solution of 5 μM of the SMARCA2 or BRD4 bromodomain protein in the running buffer. […] For ternary experiments, solutions were injected sequentially in single-cycle kinetic format without regeneration (contact time 60 s, flow rate 80 μL/min, dissociation time 300 s) using a stabilization period of 60 s and syringe wash (50% DMSO) between injections onto a low-density VBC-functionalized surface.
as §2

BRD4^BD2 = target: T4, BRD4^BD2 (Homo sapiens, UniProt O60885); test: SPR binary binding of PROTAC to BRD4^BD2-functionalized surface; settings: 1:1 Langmuir binding model, SD N=2
T4 construct: ternary complex formation with both bromodomains, BRD4^BD1 and BRD4^BD2, independently; made in house

BRD4 [3] = target: T2, BRD4; test: BRD4 degradation, MSD assay, dose response; assay type: cell-based; design: AUC (area under the dose-response curve): unit not given beside the values; settings: A375 cells; for Dmax: A-375, BRD4 degraded; for Dmax / DC50: MSD assay, 4 h timepoint; for AUC (area under the dose-response curve): BRD4 MSD assay, 4 h; for DC50: BRD4 degradation
Experimental: A375 cells were treated with SMARCA2 or BRD4 degraders for 2 h (4 h for BRD4) and generated lysates. SMARCA2 or BRD4 protein was measured with a variation of a sandwich ELISA that was assembled from commercially available antibodies as well as reagents and instrumentation procured from Meso Scale Discovery (MSD). Degradation parameter, DC50, is not suitable for PROTACs that induce partial/incomplete DR curves at a fixed time point; maximum drop in target protein level (Dmax) >>0. Conversely, the area under the curve (AUC) can be calculated as a degradation activity parameter for any DR curve, and it encompasses both the degradation potency (i.e., DC50) and efficacy (i.e., Dmax) of PROTACs.
A 1:3 compound dose-response titration was diluted in growth media (1:20), added to appropriate wells of a cell culture plate (1:10) and then assay plates were incubated at 37 °C, 5% CO2.
Plates were washed with 300 µL per well MSD wash buffer (MSD R61TX-1) between each step. Following the last incubation, plates were washed with MSD wash buffer then 150 µL of MSD read buffer (MSD R92TC-2) was added to each well. Plates were immediately read on a MSD plate reader (MSD Sector Imager 6000).
as §3

[4] = target: T5, VBC / BRD4^BD2 ternary complex (Homo sapiens, UniProt O60885+P40337); test: SPR ternary complex binding, VBC surface with preformed PROTAC/BRD4 BD2 complex; settings: for Kd: SPR, VHL, PROTAC, error SEM, N = 3, read-out: KLPT (ternary complex binding affinity)
T5 construct: VHL (54-213), ElonginB (17-112) ElonginC (1-104); ternary complex formation with both bromodomains, BRD4^BD1 and BRD4^BD2, independently; His6 (N); made in house
Experimental: as §1, §4, §2

BRD4-NanoLuc = target: T6, BRD4-NanoLuc (Homo sapiens, UniProt O60885); test: NanoBRET target engagement assay, live and permeabilized HEK293 cells (BRD4); assay type: cell-based; settings: for Availability Index: RBA test cmpd / RBA of JQ1 benchmark, surrogate for permeability; for IC50: BRD4 NanoBRET TE
T6 construct: expressed in transfected cells; host or cells: HEK293
Experimental: We employed a NanoBRET-based target engagement (TE) assay as reported earlier^7 for evaluating PROTACs relative permeability. In summary, live and permeabilized HEK293 cells with SMARCA2 or BRD4-NanoLuc were used for measuring IC50 values of different PROTACs. The relative shift in the IC50 was evaluated as relative binding affinity (RBA) by taking the ratio of IC50 values of live and permeabilized cells. Availability index (AI), which is a surrogate for permeability can be calculated by taking a ratio of RBA of compounds to permeable benchmark molecules.
Relative Binding Affinity (RBA) = Live-cell TE IC50 / Permeabilized-cell TE IC50
Availability Index (AI) = RBAtest cmpd / RBApermeable benchmark
Availability Index (AI) greater than one is indicative of reduced permeability compared to the benchmark.

[5] = SPR, error SEM, N = 3, read-out: KLP (binary binding affinity between E3 ligase VHL and PROTAC)
[6] = live HEK293 cells, read-out: Live-Cell TE
[7] = permeabilized HEK293 cells, read-out: Permeabilized-Cell TE

Kd (VHL/EloB/EloC (VBC); [5]) [nM]	SMILES	Initial Degradation Rate (BRD4 [1]) [%/min]	α (cooperativity, KLP/KLPT) [2]	Kd [2] [nM]	Kd (BRD4^BD2) [nM]	Dmax (BRD4 [3]) [%]	AUC (area under the dose-response curve) (BRD4 [3])	DC50 (BRD4 [3]) [nM]	α (cooperativity, KLP/KLPT) [4]	Kd [4] [nM]	Availability Index (BRD4-NanoLuc)	IC50 (BRD4-NanoLuc; [6]) [nM]	IC50 (BRD4-NanoLuc; [7]) [nM]	Kd (VHL/EloB/EloC (VBC)) [nM]
26 ± 5	Cc1ncsc1-c1ccc(CNC(=O)[C@@H]2C[C@@H](O)CN2C(=O)[C@@H](NC(=O)COCCOCCOCc2cn(CCNC(=O)C[C@@H]3N=C(c4ccc(Cl)cc4)c4c(sc(C)c4C)-n4c(C)nnc43)nn2)C(C)(C)C)cc1 [Compound 14, (2S,4R)-1-((S)-12-(tert-butyl)-1-(1-(2-(2-((S)-4-(4-chlorophenyl)-2,3,9-trimethyl-6H-thieno[3,2-f][1,2,4]triazolo[4,3-a][1,4]diazepin-6-yl)acetamido)ethyl)-1H-1,2,3-triazol-4-yl)-10-oxo-2,5,8-trioxa-11-azatridecan-13-oyl)-4-hydroxy-N-(4-(4-methylthiazol-5-yl)benzyl)pyrrolidine-2-carboxamide]	0.46	0.8	33 ± 4	9.6 ± 0.9	69	460	2260	1	26.5 ± 4	126.63	12600	100	
31 ± 4	Cc1ncsc1-c1ccc(CNC(=O)[C@@H]2C[C@@H](O)CN2C(=O)[C@@H](NC(=O)COCCOCCOCCOCc2cn(CCNC(=O)C[C@@H]3N=C(c4ccc(Cl)cc4)c4c(sc(C)c4C)-n4c(C)nnc43)nn2)C(C)(C)C)cc1 [Compound 15, (2S,4R)-1-((S)-15-(tert-butyl)-1-(1-(2-(2-((S)-4-(4-chlorophenyl)-2,3,9-trimethyl-6H-thieno[3,2-f][1,2,4]triazolo[4,3-a][1,4]diazepin-6-yl)acetamido)ethyl)-1H-1,2,3-triazol-4-yl)-13-oxo-2,5,8,11-tetraoxa-14-azahexadecan-16-oyl)-4-hydroxy-N-(4-(4-methylthiazol-5-yl)benzyl)pyrrolidine-2-carboxamide]	0.21	1.2	26.5 ± 4	16.2 ± 2.6		733	> 10000	0.8	39 ± 5	34.23	3920	110	
	Cc1ncsc1-c1ccc(CNC(=O)[C@@H]2C[C@@H](O)CN2C(=O)[C@@H](NC(=O)COCCOCCOCCOCCOCc2cn(CCNC(=O)C[C@@H]3N=C(c4ccc(Cl)cc4)c4c(sc(C)c4C)-n4c(C)nnc43)nn2)C(C)(C)C)cc1 [Compound 16, (2S,4R)-1-((S)-18-(tert-butyl)-1-(1-(2-(2-((S)-4-(4-chlorophenyl)-2,3,9-trimethyl-6H-thieno[3,2-f][1,2,4]triazolo[4,3-a][1,4]diazepin-6-yl)acetamido)ethyl)-1H-1,2,3-triazol-4-yl)-16-oxo-2,5,8,11,14-pentaoxa-17-azanonadecan-19-oyl)-4-hydroxy-N-(4-(4-methylthiazol-5-yl)benzyl)pyrrolidine-2-carboxamide]	0.08	1	33 ± 5	15.8 ± 2		900	> 10000	0.7	49 ± 6	164.81	18000	110	33 ± 5
	Cc1ncsc1-c1ccc(CNC(=O)[C@@H]2C[C@@H](O)CN2C(=O)[C@@H](NC(=O)COCCOCc2cn(CCNC(=O)C[C@@H]3N=C(c4ccc(Cl)cc4)c4c(sc(C)c4C)-n4c(C)nnc43)nn2)C(C)(C)C)cc1 [Compound 13, (2S,4R)-1-((S)-2-(2-(2-((1-(2-(2-((S)-4-(4-chlorophenyl)-2,3,9-trimethyl-6H-thieno[3,2-f][1,2,4]triazolo[4,3-a][1,4]diazepin-6-yl)acetamido)ethyl)-1H-1,2,3-triazol-4-yl)methoxy)ethoxy)acetamido)-3,3-dimethylbutanoyl)-4-hydroxy-N-(4-(4-methylthiazol-5-yl)benzyl)pyrrolidine-2-carboxamide]	0.76	0.6	29 ± 3	11.7 ± 0.9	78	309	726	1.7	10 ± 2	73.87	7270	100	17 ± 2

— article PMC10344917, “Affinity and cooperativity modulate ternary complex formation to drive targeted protein degradation” (Nature Communications, 2023)
